Key:
[1] = Isothermal titration calorimetry, single injection, XCage^8+; format: binding; details: toward Porp-2H and Porp-Zn
Experimental: Since the high binding affinity and aggregation of the two porphyrins prevent the accurate measurement of binding constants by isothermal titration calorimetry (ITC), a single injection experiment was performed in order to determine the binding enthalpy. The Gibbs free energy of the receptor-substrate complexation was estimated directedly from the corresponding fluorescent titrations, providing a value for TAS. Compared with ExBox^4+, the binding enthalpies of XCage^8+ are in the range of 7-8 kcal mol^−1 larger, a major contributing factor to the enhanced affinity.
Isothermal titration calorimetry: Isothermal titration was performed by TA Nano Isothermal Titration Calorimeter at 25° C. A Hastelloy cell was used with an active cell volume 190 μL. The stirring speed was set at 150 rpm. The solutions of receptors and substrates were prepared in Milli-Q water and allowed to equilibrate overnight if necessary. The aggregation of porphyrins and their high affinity binding prevented the accurate determination of binding constants, we thus only evaluated the binding enthalpy by single injection method.^S17

[2] = Displacement (competitive) fluorescence titration, XCage^8+ displacing ExBox^4+; format: binding; details: toward Porp-2H and Porp-Zn; water
Experimental: The changes in optical properties upon porphyrin encapsulation enable a facile study of the binding events. Fluorescence titrations of Porp-2H and Porp-Zn with ExBox^4+ yielded directly their binding constants in water. Since the binding affinities for XCage^8+ with Porp-2H and Porp-Zn are too high to be determined directly, competitive titrations were performed by displacing ExBox^4+ with XCage^8+ from the complex Porp-2H(Zn)⊂ExBox^4+. The binding affinities (Table 1) between ExBox^4+ and the two porphyrins are in the order of 10^7 M^−1. […] The samples were equilibrated for 6 h prior to the fluorescence titration studies. […]
Displacement fluorescence titration experiments: The displacement of porphyrins from Porp-2H⊂ExBox^4+ or Porp-Zn⊂ExBox^4+ by XCage^8+ to form Porp-2H⊂XCage^8+ or Porp-Zn⊂XCage^8+ regenerates the fluorescence emission of porphyrin, and the turn-on fluorescence was monitored as the signals to track the formation of the porphyrin inclusion complexes with XCage^8+. […] The samples were equilibrated at room temperature for 6 h, and the fluorescence intensity of each sample was recorded. The average fluorescence intensity of the three sets samples was plotted against the concentration of XCage^8+ to generate the binding isotherm, which was fitted by a displacement binding model^S15 to calculate the binding constant Ka using Origin Lab 8.6 software^S16.

SMILES: c1cc2ccc1C[n+]1ccc(cc1)-c1cc3cc(c1)-c1cc4cc(c1)-c1cc[n+](cc1)Cc1ccc(cc1)C[n+]1ccc(cc1)-c1cc(cc(c1)-c1cc(cc(c1)-c1cc[n+](cc1)Cc1ccc(cc1)C[n+]1ccc-3cc1)-c1cc[n+](cc1)C2)-c1cc[n+](cc1)Cc1ccc(cc1)C[n+]1ccc-4cc1 [XCage^8+]
- binding enthalpies larger compared with ExBox^4+ [1]: 7 to 8 kcal/mol
- enhancement in the binding affinities compared with ExBox^4+ [2]: ~1000 fold
